Laboratory results from patent publication US11285127B2, “Compositions and methods for lowering triglycerides without raising LDL-C levels in a subject on concomitant statin therapy” (Amarin Pharmaceuticals Ireland Limited, priority 2013, dated 2022).

Test system: patients with fasting triglyceride levels >200 mg/dl and <500 mg/dl despite statin therapy
Test: 12-week study: lipoprotein particle size (VLDL, LDL, HDL; nuclear magnetic resonance)
Format: in vivo, human
Conditions: for LDL Particle Size, Week 12 EP Median (IQR): MITT; for LDL Particle Size, Percent change from Baseline, Median (IQR) / LDL Particle Size, Difference from placebo, Estimated median: Week 12, MITT; for LDL Particle Size, Difference from placebo, Estimated median: difference in percent change
Description: Parameters (a)-(z) can be measured in accordance with any clinically acceptable methodology. For example, triglycerides, total cholesterol, HDL-C and fasting blood sugar can be sample from serum and analyzed using standard photometry techniques. VLDL-TG, LDL-C and VLDL-C can be calculated or determined using serum lipoprotein fractionation by preparative ultracentrifugation and subsequent quantitative analysis by refractometry or by analytic ultracentrifugal methodology. Apo A1, Apo B and hsCRP can be determined from serum using standard nephelometry techniques. Lipoprotein (a) can be determined from serum using standard turbidimetric immunoassay techniques. LDL particle number and particle size can be determined using nuclear magnetic resonance (NMR) spectrometry. Remnants lipoproteins and LDL-phospholipase A2 can be determined from EDTA plasma or serum and serum, respectively, using enzymatic immunoseparation techniques. Oxidized LDL, intercellular adhesion molecule-1 and interleukin-2 levels can be determined from serum using standard enzyme immunoassay techniques. These techniques are described in detail in standard textbooks, for example Tietz Fundamentals of Clinical Chemistry, 6th Ed. (Burtis, Ashwood and Borter Eds.), WB Saunders Company.
A multi-center, placebo-controlled, randomized, double-blind, 12-week study was performed to evaluate the efficacy and safety of >96% E-EPA in patients with fasting triglyceride levels >200 mg/dl and <500 mg/dl despite statin therapy (the mean of two qualifying entry values needed to be >185 mg/dl and at least one of the values needed to be >200 mg/dl). The primary objective of the study was to determine the efficacy of >96% E-EPA 2 g daily and 4 g daily, compared to placebo, in lowering fasting TG levels in patients with high risk for cardiovascular disease and with fasting TG levels 200 mg/dl and <500 mg/dl, despite treatment to LDL-C goal on statin therapy.
The secondary objectives of this study were the following: • 1. To determine the safety and tolerability of >96% E-EPA 2 g daily and 4 g daily; • 2. To determine the effect of >96% E-EPA on lipid and apolipoprotein profiles including total cholesterol (TC), non-high-density lipoprotein cholesterol (non-HDL-C), low density lipoprotein cholesterol (LDL-C), high density lipoprotein cholesterol (HDL-C), and […]; • 3. To determine the effect of >96% E-EPA on lipoprotein associated phospholipase A2 (Lp-PLA2) from baseline to week 12; • 4. To determine the effect of >96% E-EPA on low-density lipoprotein (LDL) particle number and size; • 5. To determine the effect of >96% E-EPA on oxidized LDL; • 6. To determine the effect of >96% E-EPA on fasting plasma glucose (FPG) and hemoglobin A1c (HbA1c); • 7. To determine the effect of >96% E-EPA on insulin resistance; • 8. To determine the effect of >96% E-EPA on high-sensitivity C-reactive protein (hsCRP); • 9. To determine the effects of >96% E-EPA 2 g daily and 4 g daily on the incorporation of fatty acids into red blood cell membranes and into plasma phospholipids; • 10. To explore the relationship between baseline fasting TG levels and the reduction in fasting TG levels; and • 11. To explore the relationship between changes of fatty acid concentrations in plasma and red blood cell membranes, and the reduction in fasting TG levels.
The primary efficacy variable for the double-blind treatment period was percent change in TG from baseline to Week 12 endpoint. […]

[1] = 2 g/day E-EPA (n = 221), 12 weeks
[2] = 2 g/day E-EPA (n = 222), 12 weeks
[3] = 2 g/day, 12 weeks, Hodges-Lehmann median
[4] = 4 g/day E-EPA (n = 215), 12 weeks
[5] = 4 g/day E-EPA (n = 216), 12 weeks
[6] = 4 g/day, 12 weeks, Hodges-Lehmann median, listed as E-EPA
[7] = IPE 4 g/day (n = 215), 12 weeks
[8] = IPE 4 g/day (n = 216), 12 weeks
[9] = IPE 4 g/day vs placebo, 12 weeks, Hodges-Lehmann median

CC/C=C\C/C=C\C/C=C\C/C=C\C/C=C\CCCC(=O)OCC [AMR101, ethyl eicosapentaenoate]
LDL particle size, % Δ from baseline (median) [1]: +0.5% | LDL particle size, End (median) [1]: 20.0 nm | HDL particle size, % Δ from baseline (median) [2]: 0.0% | HDL particle size, End (median) [2]: 8.6 nm | VLDL particle size, % Δ from baseline (median) [2]: −5.0% | VLDL particle size, End (median) [2]: 53.2 nm | HDL particle size, Placebo-Adjusted Median Change from Baseline, 2 g/d [3]: 0.0% | LDL particle size, Placebo-Adjusted Median Change from Baseline, 2 g/d [3]: +0.5% | VLDL particle size, Placebo-Adjusted Median Change from Baseline, 2 g/d [3]: −4.8% | LDL particle size, % Δ from baseline (median) [4]: +0.5% | LDL particle size, End (median) [4]: 20.0 nm | HDL particle size, % Δ from baseline (median) [5]: −1.1% | HDL particle size, End (median) [5]: 8.6 nm | VLDL particle size, % Δ from baseline (median) [5]: −8.1% | VLDL particle size, End (median) [5]: 51.2 nm | HDL particle size, Placebo-Adjusted Median Change from Baseline, 4 g/d [6]: −1.2% | LDL particle size, Placebo-Adjusted Median Change from Baseline, 4 g/d [6]: +0.5% | VLDL particle size, Placebo-Adjusted Median Change from Baseline, 4 g/d [6]: −7.7% | LDL Particle Size, Week 12 EP Median (IQR) (AMR101 2g/d + statin, n 221): 20.0 (0.6) nm | LDL Particle Size, Percent change from Baseline, Median (IQR) (AMR101 2g/d + statin): 0.5 (2.5) % | LDL Particle Size, Difference from placebo, Estimated median (AMR101 2g/d + statin): 0.5% | LDL Particle Size, Week 12 EP Median (IQR) (AMR101 4g/d + statin, n 215): 20.0 (0.6) nm | LDL Particle Size, Percent change from Baseline, Median (IQR) (AMR101 4g/d + statin): 0.5 (2.5) % | LDL Particle Size, Difference from placebo, Estimated median (AMR101 4g/d + statin): 0.5% | LDL particle size, Change From Baseline, % (median) [7]: 0.5% | LDL particle size, End of Treatment (median) [7]: 20.0 nm | HDL particle size, Change From Baseline, % (median) [8]: −1.1% | HDL particle size, End of Treatment (median) [8]: 8.6 nm | VLDL particle size, Change From Baseline, % (median) [8]: −8.1% | VLDL particle size, End of Treatment (median) [8]: 51.2 nm | HDL particle size, Median Change From Baseline IPE 4 g/day vs Placebo, % [9]: −1.2% | LDL particle size, Median Change From Baseline IPE 4 g/day vs Placebo, % [9]: 0.5% | VLDL particle size, Median Change From Baseline IPE 4 g/day vs Placebo, % [9]: −7.7%
